For 14 molecules, Ki results are on record in ChEMBL document CHEMBL1142836 (Bioorg Med Chem Lett, 2005).

Each structure is given as a SMILES string.

The assay has as its target Carbonic anhydrase 9 (Homo sapiens, UniProt Q16790).
As usually defined, the Ki is a measure of affinity in units of concentration, obtained from inhibition or displacement. A low value points to tighter binding. Molecule `NS(=O)(=O)c1nnc(NC(=O)CN2CCOCC2)s1` came in with an inhibitory constant (Ki) of 22 nM.

`NS(=O)(=O)c1ccc(NC(=O)CN2CCOCC2)cc1` came in with a Ki of 181 nM.

`CC1CCN(CCCC(=O)Nc2ccc(S(N)(=O)=O)cc2)CC1` displayed a Ki of 90 nM.

As to `NS(=O)(=O)c1ccc(NC(=O)CCN2CCOCC2)cc1`, the Ki was found to be 184 nM.

`NS(=O)(=O)c1ccc(NC(=O)CCN2CCN(Cc3ccccc3)CC2)cc1` showed an inhibition constant Ki of 240 nM.

`CN1CCN(CCC(=O)Nc2ccc(S(N)(=O)=O)cc2)CC1` returned a Ki of 235 nM.

Take `NS(=O)(=O)c1ccc(NC(=O)CCCCN2CCOCC2)cc1`: the Ki is 163 nM.

Regarding `CC1CCN(CCC(=O)Nc2ccc(S(N)(=O)=O)cc2)CC1`, the affinity, expressed as Ki, was 197 nM.

The molecule `NS(=O)(=O)c1ccc(NC(=O)CCN2CCC(Cc3ccccc3)CC2)cc1` registered a Ki of 248 nM.

Molecule `CN1CCN(CC(=O)Nc2nnc(S(N)(=O)=O)s2)CC1` had a Ki of 31 nM.

For `CN1CCN(CCC(=O)Nc2nnc(S(N)(=O)=O)s2)CC1`, the inhibition constant Ki was found to be 33 nM.

Regarding `NS(=O)(=O)c1ccc(NC(=O)CCCN2CCOCC2)cc1`, the Ki came to 246 nM.

The molecule `NS(=O)(=O)c1nnc(NC(=O)CN2CCN(Cc3ccccc3)CC2)s1` registered an inhibition constant Ki of 67 nM.

Regarding `CC1CCN(CC(=O)Nc2nnc(S(N)(=O)=O)s2)CC1`, the inhibition constant Ki worked out at 35 nM.
